Measurements taken from patent US8013006B2.
Read-outs that look alike come from different tables or passages of the source.

Legend:
HCV replicon = assay: microbe, parasite or virus in culture; format: cell-based; conditions: Hepatitis C virus, 48 h

SMILES | IC50 (HCV replicon; read-out: Replicon IC5Os μM) [µM] | melting point [°C] | IC50 (HCV replicon; read-out: Replicon IC5Os) [µM]
CCn1c(C#Cc2ccc3c(c2)OCCO3)c(C#N)c2ccc(OC)cc21 [Compound 175] | 0.5 to 2 | 132 to 135 | 
CCn1c(C#Cc2ccc(C(F)(F)F)cc2)c(C#N)c2ccc(O)cc21 [Compound 185] | 0.5 to 2 | 157 to 160 | 
CCn1c(C#Cc2ccccc2)c(C#N)c2ccc(O)cc21 [Compound 188] | 0.5 to 2 | 209 to 212 | 
CCn1c(C#Cc2cccc(O)c2)c(C#N)c2ccc(C(F)(F)F)cc21 [Compound 196] | 0.5 to 2 | 187 to 189 | 
CCn1c(C#Cc2ccc(N)cc2)c(C#N)c2ccc(C(F)(F)F)cc21 [Compound 200] | 0.5 to 2 | 187 to 189 | 
CCn1c(C#Cc2ccc(N(C)C)cc2)c(C#N)c2ccc(C(F)(F)F)cc21 [Compound 201] | 0.5 to 2 | 147 to 150 | 
CCn1c(C#Cc2cccc(NC(C)=O)c2)c(C#N)c2ccc(OC)cc21 [Compound 205] | 0.5 to 2 | 181 to 184 | 
CCC(=O)Nc1cccc(C#Cc2c(C#N)c3ccc(OC)cc3n2CC)c1 [Compound 206] | 0.5 to 2 | 187 to 191 | 
CCn1c(C#Cc2cccc(NC(=O)C(C)C)c2)c(C#N)c2ccc(OC)cc21 [Compound 207] | 0.5 to 2 | 179 to 183 | 
CCn1c(C#Cc2cccc(NC(=O)C3CC3)c2)c(C#N)c2ccc(OC)cc21 [Compound 211] | 0.5 to 2 | 186 to 191 | 
CCn1c(C#Cc2cccc(NC(=O)C3CCC3)c2)c(C#N)c2ccc(OC)cc21 [Compound 213] | 0.5 to 2 | 165 to 168 | 
CCn1c(NC(=O)C2CC2)c(C#N)c2ccc(OC)cc21 [Compound 216] | 0.5 to 2 | 261 | 
CCn1c(NC(=O)OCC(C)C)c(C#N)c2ccc(OC)cc21 [Compound 217] | < 0.5 | 272 to 273 | 
CCn1c(C#Cc2cccc(NC=O)c2)c(C#N)c2ccc(OC)cc21 [Compound 218] | 0.5 to 2 | 174 to 177 | 
CCn1c(C#Cc2cccc(NC(=O)COC)c2)c(C#N)c2ccc(OC)cc21 [Compound 219] | 0.5 to 2 | 145 to 149 | 
CCn1c(C#Cc2cccc(NC(=O)NCCCl)c2)c(C#N)c2ccc(OC)cc21 [Compound 221] | 0.5 to 2 | 195 to 200 | 

SMILES | IC50 (HCV replicon; read-out: Replicon IC5Os μM) [µM] | melting point [°C] | IC50 (HCV replicon; read-out: Replicon IC5Os) [µM]
COc1ccc2c(C#N)c(C#Cc3ccc(C(C)(C)C)cc3)[nH]c2c1 [Compound 233] | 0.5 to 2 | 232 to 234 | 
CCn1c(-c2ccc(NS(C)(=O)=O)cc2)c(C#N)c2cc(OC)ccc21 [Compound 243] | < 0.5 | 194 to 198 | 
CCCS(=O)(=O)Nc1ccc(-c2c(C#N)c3ccc(OC)cc3n2CC)cc1 [Compound 251] | 0.5 to 2 | 186 to 187 | 
CCn1c(-c2ccc(NS(=O)(=O)CCCCl)cc2)c(C#N)c2ccc(OC)cc21 [Compound 252] | 0.5 to 2 | 176 to 177 | 
CCn1c(-c2ccc(OCCNS(=O)(=O)CC)cc2)c(C#N)c2ccc(OC)cc21 [Compound 269] | 0.5 to 2 | 153 to 158 | 
CCn1c(-c2cccc(S(=O)(=O)NC)c2)c(C#N)c2ccc(OC)cc21 [Compound 331] |  | 160 to 165 | 0.5 to 2
CCn1c(-c2ccc3c(c2)oc(=O)n3C)c(C#N)c2ccc(OC)cc21 [Compound 341] |  | 227 to 230 | 0.5 to 2
CCS(=O)(=O)Nc1ccc(-c2c(C#N)c3ccc(OC)cc3n2C)cc1 [Compound 345] |  | 191 to 192 | 0.5 to 2
CCCn1c(-c2ccc(NS(C)(=O)=O)cc2)c(C#N)c2ccc(OC)cc21 [Compound 346] |  | 178 to 180 | < 0.5
CCn1c(-c2ccc(NS(=O)(=O)CC)cc2)c(C#N)c2ccc(C(F)(F)F)cc21 [Compound 366] |  | 223 to 225 | < 0.5
CCCS(=O)(=O)Nc1ccc(-c2c(C#N)c3ccc(C(F)(F)F)cc3n2CC)cc1 [Compound 367] |  | 225 to 227 | 0.5 to 2
CCn1c(-c2ccc(NS(=O)(=O)CCCCl)cc2)c(C#N)c2ccc(C(F)(F)F)cc21 [Compound 369] |  | 174 to 177 | 0.5 to 2
CCn1c(-c2ccc(S(N)(=O)=O)cc2)c(C#N)c2cc(Cl)ccc21 [Compound 408] |  | 231 to 235 | 0.5 to 2
CCOc1ccc2c(C#N)c(-c3ccc(NS(C)(=O)=O)cc3)n(C)c2c1 [Compound 413] |  | 184 to 185 | < 0.5
CCOc1ccc2c(C#N)c(-c3ccc(NS(C)(=O)=O)cc3)n(CC)c2c1 [Compound 415] |  | 163 to 165 | < 0.5
